Reference: article PMC3246456, “An Immunoassay for Dibutyl Phthalate Based on Direct Hapten Linkage to the Polystyrene Surface of Microtiter Plates” (PLoS ONE, 2011)
One block for each compound: values may come before it.

What was measured:
anti-DBP MAb [1] = experiment: Hapten coated icELISA (DBAP directly linked to polystyrene); type: binding, mouse; details: for inhibition: at 10 mg/mL; for antibody recognition: specificity of MAb; for CR (cross-reactivity): CR (%) = IC50 DBP/IC50 analogue×100
Method: (§1) An icELISA was used to assess the sensitivity of the MAb to free DBP and the cross-reactivities of structurally related compounds to the antibody. For competition, 50 µL of standards or diluted samples in assay buffer were placed in the wells, and 50 µL of the anti-DBP MAb diluted with assay buffer was added. After incubated for 1.5 h at 25°C, the plate was washed. The following procedure was followed as described for the inELISA. […] Standards and samples were run in triplicate wells, and the mean absorbance values were processed. Standard curves were obtained by plotting absorbance against the logarithm of analyte concentration and fitted with a logistic four-parameter equation y = (A−D)/[1+(x/C)^B]+D, where A is the absorbance value with no analyte present, B is the slope near the midpoint inhibition concentration, C is the concentration of analyte giving 50% inhibition (IC50), and D is the minimum absorbance value at infinite concentration of the analyte, [21]. Dynamic range was established between the concentrations producing 20% and 80% inhibition (IC20–IC80 or 80%–20% of the maximum response). Limit of detection (LOD) was determined as the concentration corresponding to 10% inhibitory concentration (IC10 or 90% of the maximum response) [22]–[24].
Polystyrene surface was first carboxylated by permanganate oxidation. Microwells were filled with a solution of 5% KMnO4 in 0.6 mol/L H2SO4 (150 µL/well) for 60 min at 60°C. The plates were washed with 6 mol/L HCl (3×5 min, 200 µL/well) to remove the brown manganese oxide and rinsed three times with distilled water giving polystyrene-COOH microwells [25]. Then 150 µL of EDC and hapten DBAP in 0.1 mol/L MES buffer (pH 5.0) were placed in the wells and incubated overnight under shaking (Fig. 2). The subsequent procedures were the same as conjugate coated inELISA or icELISA under optimal condition. The essential steps in direct attachment of hapten DBAP to polystyrene surface such as concentrations of EDC and conjugation temperatures were determined by the amount of antibody on the modified polystyrene surface measured by inELISA with coating concentration of 2 µg/mL DBAP and MAb dilution of 1∶2000. The optimal coating concentration of DBAP and dilution of MAb were determined by checkerboard titration.
To determine the specificity of MAb produced, the ability of the MAb to recognize several structurally related compounds (analogues) was tested by performing hapten coated icELISA and determining their respective IC50 values. The cross-reactivity (CR) values were calculated according to the following equation CR (%) = IC50 DBP/IC50 analogue×100 [23], [26].

anti-DBP MAb [2] = experiment: Conjugate coated indirect competitive ELISA (icELISA), DBAP-BSA coated; type: binding, mouse
Method: Checkerboard titration, in which purified MAb was titrated against varying amounts of the coating hapten-conjugate was used to measure the reactivity of antibodies and to select an appropriate coating concentrations and antibody dilutions for icELISA [19]. The checkerboard assays were performed with inELISA. Microtiter plates were coated with 100 µL/well of hapten-protein conjugates (0, 0.125, 0.25, 0.5, and 1 µg/mL) in 0.05 mol/L carbonate buffer (pH 9.6) and incubated overnight at 4°C. The plates were washed three times with PBST (0.01 mol/L PBS containing 0.05% Tween-20, pH 7.4, 200 µL/well) and were blocked with 3% (w/v) skim milk powder (SMP) in PBS (250 µL/well) for 1 h at 37°C. After another washing step, 100 µL/well of purified anti-DBP MAb (1∶1000, 1∶2000, 1∶4000, 1∶8000, 1∶16000, and 1∶32000) diluted in PBS containing 0.1% BSA was added. After incubation for 1.5 h at 25°C, the plates were washed. Subsequently, the plates were incubated for 1 h at 37°C with 10000-fold diluted HRP-anti-mIgG in PBS containing 0.1% BSA (100 µL/well). After another washing step, 100 µL/well of freshly prepared O-phenylenediamine (OPD) solution (0.4 mg/mL OPD and 0.012% H2O2 in 0.05 mol/L citrate-phosphate, pH 5.0) was added. The reaction was stopped with 2 mol/L sulfuric acid (50 µL/well) after an incubation of 15 min at room temperature keeping away from light. The absorbance was recorded at a primary wavelength of 492 nm with a reference wavelength of 630 nm.
as §1
The influence of several experimental parameters on assay characteristics was examined in order to improve the sensitivity of the immunoassay. Concentrations of coating antigen and dilutions of MAb were determined by checkerboard titration. Other different experimental parameters such as organic solvents, pH, ionic strength, and detergent in assay buffer, and blocking agents were studied sequentially in this order using the above described icELISA protocol. Each time an evaluated parameter was changed, the new value was used for the evaluation of the next condition. Criteria used to evaluate the assay performances were the absorbance of zero concentration of DBP (Amax) and IC50.

[3] = test system: antibodies in hybridoma culture supernatants; experiment: Hybridoma screening by icELISA with 1 µg/mL DBAP-BSA; type: binding, mouse; details: three competitive clones of 352 wells; coated antigen 1 µg/mL DBAP-BSA
Method: SP 2/0 murine myeloma cells were cultured in DMEM supplemented with 15% fetal bovine serum and 1% penicillin–streptomycin. Cell fusion and hybridoma culture procedures were carried out essentially as described by James. Mice splenocytes were mixed with SP 2/0 cells at the ratio of 5∶1 and centrifuged at 450 g for 5 min. One milliliters of polyethylene glycol solution at 37°C was dropped to the cell pellet over 1 min. The cell pellet was rotated for further 1 min, then 1 mL of DMEM added over 1 min, 2 mL of DMEM over 2 min. Finally, 12 mL was added over 2 min. After centrifugation at 450 g for 5 min, the cells were pelleted again, resuspended in HAT medium (DMEM containing 15% fetal bovine serum, 1% penicillin–streptomycin and 2% HAT media supplement) and plated into 96-well plates in which normal mouse peritoneal exudate cells (as feeder cells) had already been cultured 1 day before fusion. The colonies were fed every fifth day with freshly prepared HAT medium. […] The ratio of both absorbances was used as the criterion for selecting the best antibody-secreting clones. […]
An icELISA was used to assess the sensitivity of the MAb to free DBP and the cross-reactivities of structurally related compounds to the antibody. […] Standards and samples were run in triplicate wells, and the mean absorbance values were processed. […]

polyclonal antibody = test system: polyclonal antibody; parameters: method as in PMID 16947007; details: cited from earlier work
MAb = experiment: Binding of MAb to hapten linked on polystyrene surface; parameters: species or system mouse; details: carboxylated hapten linked to polystyrene surface; absorbance at 492 nm too low
Text: Although methods had already been reported for linking hapten to polystyrene surface, [11], it was not applicable to the hapten coated ELISA for DBP because the MAb produced hardly bound to the carboxylated hapten DBCP on polystyrene (The absorbance value at 492 nm was too low.). Thus it was needed to immobilize the aminated hapten DBAP to the surface of polystyrene. Holthues et al had linked an aminated hapten ABA–atrazine to a glutaraldehyde polymer network directly bound to polystyrene surface and developed very sensitive ELISA to detect terbutryn. However, it was a failure to establish hapten coated ELISA for DBP based on covalently linking DBAP to a glutaraldehyde polymer network on polystyrene surface. […] The hapten coated format presented is proposed as generally applicable, because the carboxyl on modified microtiter plate surface enables stable immobilization of aminated or hydroxylated hapten through EDC.

[4] = conjugate coated icELISA, optimized conditions
[5] = cross-reactivity study, hapten coated icELISA, mean ±SD of three replicates
[6] = hapten coated icELISA, optimized conditions

Structure (SMILES): CCCCCCCCOC(=O)c1ccccc1C(=O)OCCCCCCCC [DOP, di(n-octyl) phthalate]
inhibition (anti-DBP MAb [1]; hapten coated icELISA): 1.15% inhibition at 10 mg/mL
antibody recognition (anti-DBP MAb [1]; hapten coated icELISA): absence of recognition

Structure (SMILES): CCCCOC(=O)c1ccccc1C(=O)OCCCC [DBP, Dibutyl phthalate]
IC50 (blocking agent optimization) (anti-DBP MAb [2]; OVA as a blocking reagent (Fig. 4D)): 0.10813 ± 0.01952 µg/mL
IC50 (lowest, pH optimization) (anti-DBP MAb [2]; assay buffer pH 6.8 (Fig. 4A)): 177.04±15.37 ng/mL
IC50 (anti-DBP MAb [2]; assay buffer with 0% DMF (DMF series) in PBS containing 0.1% BSA, mean ±SD, three replicates): 0.369 ± 0.0274 µg/mL
IC50 (anti-DBP MAb [2]; assay buffer with 0% DMSO (DMSO series) in PBS containing 0.1% BSA, mean ±SD, three replicates): 0.392 ± 0.0702 µg/mL
IC50 (anti-DBP MAb [2]; assay buffer with 0% acetonitrile (acetonitrile series) in PBS containing 0.1% BSA, mean ±SD, three replicates): 0.471 ± 0.0306 µg/mL
IC50 (anti-DBP MAb [2]; assay buffer with 0% dioxane (dioxane series) in PBS containing 0.1% BSA, mean ±SD, three replicates): 0.797 ± 0.0198 µg/mL
IC50 (anti-DBP MAb [2]; assay buffer with 0% methanol (methanol series) in PBS containing 0.1% BSA, mean ±SD, three replicates): 1.4 ± 0.0643 µg/mL
IC50 (anti-DBP MAb [2]; assay buffer with 5% DMF in PBS containing 0.1% BSA, mean ±SD, three replicates): 0.303 ± 0.0302 µg/mL
IC50 (anti-DBP MAb [2]; assay buffer with 5% DMSO in PBS containing 0.1% BSA, mean ±SD, three replicates): 0.373 ± 0.0318 µg/mL
IC50 (anti-DBP MAb [2]; assay buffer with 5% acetonitrile in PBS containing 0.1% BSA, mean ±SD, three replicates): 0.444 ± 0.0118 µg/mL
IC50 (anti-DBP MAb [2]; assay buffer with 5% dioxane in PBS containing 0.1% BSA, mean ±SD, three replicates): 1.679 ± 0.271 µg/mL
IC50 (anti-DBP MAb [2]; assay buffer with 5% methanol in PBS containing 0.1% BSA, mean ±SD, three replicates): 0.637 ± 0.0671 µg/mL
IC50 (anti-DBP MAb [2]; assay buffer with 10% DMF in PBS containing 0.1% BSA, mean ±SD, three replicates): 0.223 ± 0.0118 µg/mL
IC50 (anti-DBP MAb [2]; assay buffer with 10% DMSO in PBS containing 0.1% BSA, mean ±SD, three replicates): 0.52 ± 0.0661 µg/mL
IC50 (anti-DBP MAb [2]; assay buffer with 10% acetonitrile in PBS containing 0.1% BSA, mean ±SD, three replicates): 0.325 ± 0.0088 µg/mL
IC50 (anti-DBP MAb [2]; assay buffer with 10% dioxane in PBS containing 0.1% BSA, mean ±SD, three replicates): 2.509 ± 0.504 µg/mL
IC50 (anti-DBP MAb [2]; assay buffer with 10% methanol in PBS containing 0.1% BSA, mean ±SD, three replicates): 0.624 ± 0.0145 µg/mL
IC50 (anti-DBP MAb [2]; assay buffer with 20% DMF in PBS containing 0.1% BSA, mean ±SD, three replicates): 0.345 ± 0.0175 µg/mL
IC50 (anti-DBP MAb [2]; assay buffer with 20% DMSO in PBS containing 0.1% BSA, mean ±SD, three replicates): 0.423 ± 0.053 µg/mL
IC50 (anti-DBP MAb [2]; assay buffer with 20% acetonitrile in PBS containing 0.1% BSA, mean ±SD, three replicates): 0.428 ± 0.0112 µg/mL
IC50 (anti-DBP MAb [2]; assay buffer with 20% dioxane in PBS containing 0.1% BSA, mean ±SD, three replicates): 2.191 ± 0.224 µg/mL
IC50 (anti-DBP MAb [2]; assay buffer with 20% methanol in PBS containing 0.1% BSA, mean ±SD, three replicates): 0.889 ± 0.0186 µg/mL
IC50 (anti-DBP MAb [2]; conjugate coated icELISA standard curve, optimized conditions (DBAP-BSA 0.25 µg/mL, MAb 1:8000)): 0.106 µg/mL
LOD (IC10) (anti-DBP MAb [2]; [4]): 0.0105 µg/mL
dynamic range (IC20–IC80) (anti-DBP MAb [2]; [4]): 0.0252 to 0.445 µg/mL
CR (cross-reactivity) (anti-DBP MAb [1]; hapten coated icELISA): 100%
IC50 (anti-DBP MAb [1]; [5]): 0.0147 ± 0.0028 µg/mL
IC50 (anti-DBP MAb [1]; hapten coated icELISA standard curve, optimized conditions (DBAP 1 µg/mL, MAb 1:1000)): 0.0146 µg/mL
LOD (IC10) (anti-DBP MAb [1]; [6]): 0.000426 µg/mL
dynamic range (IC20–IC80) (anti-DBP MAb [1]; [6]): 0.00174 to 0.123 µg/mL
IC50 [3]: < 5 µg/mL
limit of detection (LOD) (polyclonal antibody; as stated by Zhang et al): 0.02 µg/L
concentration causing 50% of the maximal fluorescence quenching (polyclonal antibody; maximum concentration used did not cause 50% quenching): > 1000 µg/L

Structure (SMILES): CCOC(=O)c1ccccc1C(=O)OCC [DEP, diethyl phthalate]
inhibition (anti-DBP MAb [1]; hapten coated icELISA): 5.08% inhibition at 10 mg/mL
antibody recognition (anti-DBP MAb [1]; hapten coated icELISA): absence of recognition

Structure (SMILES): CCCCOC(=O)c1ccccc1C(=O)OCc1ccccc1 [BBP, Butyl benzyl phthalate]
IC50 (anti-DBP MAb [1]; [5]): 0.0721 ± 0.0142 µg/mL

Structure (SMILES): CCCCC(CC)COC(=O)c1ccccc1C(=O)OCC(CC)CCCC (stereo not drawn) [DEHP, di(2-ethylhexyl) phthalate]
inhibition (anti-DBP MAb [1]; hapten coated icELISA): 1.12% inhibition at 10 mg/mL
antibody recognition (anti-DBP MAb [1]; hapten coated icELISA): absence of recognition

binding of MAb to hapten on polystyrene (MAb): hardly bound
Structure (SMILES): CCCCOC(=O)c1ccc(NC(=O)CCC(=O)O)cc1C(=O)OCCCC [DBCP]

Structure (SMILES): COC(=O)c1ccccc1C(=O)OC [DMP, dimethyl phthalate]
inhibition (anti-DBP MAb [1]; hapten coated icELISA): 7.98% inhibition at 10 mg/mL
antibody recognition (anti-DBP MAb [1]; hapten coated icELISA): absence of recognition

Structure (SMILES): CCCCOC(=O)c1ccc(N)cc1C(=O)OCCCC [DBAP, dibutyl 4-aminophthalate]
CR (cross-reactivity) (anti-DBP MAb [1]; hapten coated icELISA): 27.8%
IC50 (anti-DBP MAb [1]; [5]): 0.0529 ± 0.0124 µg/mL
